Source: patent US4625016A, “Collagen inhibiting compositions and processes for manufacturing and using same” (University of Medicine and Dentistry of New Jersey, priority 1983, dated 1986)

What was measured:
[1] = system: KB cells; settings: as disclosed in 266 Nature 63 (1977); cited from earlier work
[2] = system: normal human skin fibroblasts; experiment: Attachment and growth of human skin fibroblasts in plastic culture flasks (assay of collagen synthesis); assay type: cell-based
Text: The principle of the test system is that when collagen-producing cells, such as normal skin fibroblasts are introduced into a plastic flask containing a nutrient medium, the cells attach to the surface of the flask and grow. However, firm attachment of normal fibroblasts to the surface of the flask requires that the cells first synthesize a "pad" comprised of collagen fibers and several other materials through which the collagen producing cells attach to the plastic surface. If synthesis of normal collagen fibers is prevented, the collagen-producing cells, such as the normal skin fibroblasts, will not attach and therefore will not grow. […] The manner in which cis-4-hydroxy-L-proline produces these effects has been disclosed in 336 Biochimica et Biophysica Acta 234, (1974); 174 Archives of Biochemistry and Biophysics 381 (1976); 226 Nature 63 (1977); and 272 Nature 622 (1978).
None of the three polymeric compositions are soluble in water and are consequently dissolved in 50% acetic acid and water. The solution is placed dropwise on a microscopic coverslip and the solvent evaporated with warm air from a hair dryer. The coverslip, coated with the composition, is then placed in a plastic culture flask (75 cm^2; Falcon). From 5×10^5 to 10.5×10^5 normal human fibroblasts in 2 ml of cell culture medium are added to the flask. The flask is incubated at 37° C. in 5% carbon dioxide and 95% air for 3 to 5 days, and the number of cells in the flask counted. Control sample contained microscopic coverslips treated with an equal volume of solvent and air-dried.

O=C(O)[C@@H]1C[C@H](O)CN1 [cis-4-Hydroxy-L-proline, cis-4-hydroxy-L-proline]
Growth of cells which do not produce collagen (in words) [1]: not inhibited
Cells per flask, Final ([2]; Expt. 1, dosage level 250 μg/ml, initial 5.0 × 10^5, 3 to 5 days, None: 67): < 1 × 10^5
Cells per flask, Final ([2]; Expt. 2, dosage level 100 μg/ml, initial 10.3 × 10^5, None: 98): 2.2 × 10^5
Cells per flask, Final ([2]; Expt. 3, dosage level 50 μg/ml, initial 7.0 × 10^5, None: 56): 12 × 10^5
Cells per flask, Final ([2]; Expt. 3, dosage level 150 μg/ml, initial 7.0 × 10^5, None: 56): 1.3 × 10^5
Attachment and growth of normal fibroblasts (in words) ([2]; no dose stated): prevents attachment and growth
